Three compounds from US9249356B2, “Liquid crystal dye mixture” (PEER+ B.V., priority 2011, dated 2016) can be followed below.

Bounds are passed on as bounds.

What all share (format): physicochemical
A short description of one series: Light fastness. The following applies: in words. From the text: As a third requirement, a high light stability of the dye is desirable. A high light stability allows a long lifetime of the devices in high power conditions such as sunlight, lasers or interior lighting.
The nature of series [1]: Solubility in fluorinated liquid crystal.
Series [2] can be described thus: Fluorescence / quantum yield. From the text: As a fourth requirement, the fluorescent dichroic dye should have high quantum efficiency. The quantum efficiency is the ratio of emitted photons to absorbed photons of the dye. The higher the quantum efficiency of the dye, the better the dye fluoresces. A good fluorescent dye has a quantum efficiency of at least 0.5, but preferably close to 1.

Series [3] can be described thus: Dichroic ratio in a liquid crystal host. From the text:
The purpose of these LC-dye mixtures is to be able to control the absorption or fluorescence emission (or both) of light by the dye. A measure of how well the absorption can be controlled is the dichroic ratio of the dye in the LC mixture. The dichroic ratio is the ratio in absorption for light coming in parallel to the absorption axis of the molecule (A∥) versus light traveling perpendicular to the absorption axis (A—|—):
DR=A∥/A—|—. Another way of expressing the same property is the order parameter (S), which is defined as […]

Series [4] is described as follows: Peak absorption and order parameter of Lumogen dyes in nematic liquid crystal. From the text:
Light fast rylene type dyes are commercially sold by BASF under the name Lumogen.

A short description of series [5]: Maximum solubility in nematic liquid crystal mixture MLC6653. The following applies: nematic LC (MLC6653 named). From the text: As is apparent from the table above, these dyes suffer from a low order parameter. The Lumogen IR 765 and Lumogen IR788 have poor fluorescence and have no significant solubility (<<0.1 wt %) in commercial liquid crystal mixture MLC6653 from (Merck Darmstadt), a nematic liquid crystal mixture with positive dielectric anisotropy and a positive delta n.

`CCCCCCCCCCCCC1(CCCCCCCCCCCC)c2cc(N3C(=O)c4ccc5c6ccc7c8c(ccc(c9ccc(c4c59)C3=O)c86)C(=O)N(C(CCCCCC)CCCCCC)C7=O)ccc2-c2ccc(N3C(=O)c4ccc5c6ccc7c8c(ccc(c9ccc(c4c59)C3=O)c86)C(=O)N(C(CCCCCC)CCCCCC)C7=O)cc21` [PFP]: the light fastness result in “Light fastness” was “good”. The same compound registered a solubility in series [1] of 0.2 wt %. Also, the fluorescence result in series [2] (in words) was “good”. For the same compound, the dichroic ratio in series [3] turned out to be 12.
`CC(C)c1cccc(C(C)C)c1N1C(=O)c2cc(Oc3ccccc3)c3c4c(Oc5ccccc5)cc5c6c(cc(Oc7ccccc7)c(c7c(Oc8ccccc8)cc(c2c37)C1=O)c64)C(=O)N(c1c(C(C)C)cccc1C(C)C)C5=O` [Lumogen F red 305] showed a Peak absorption in series [4] (in nematic LC) of 577.5 nm. The “order parameter in nematic LC” value in series [4] (nematic LC) is given as −0.12. Besides, the maximum solubility in series [5] was found to be 0.2 wt %.
With `CCCCCCC(CCCCCC)N1C(=O)c2ccc3c4ccc5c6c(ccc(c7ccc(c2c37)C1=O)c64)C(=O)N(c1ccc(-c2ccc3c4ccc6c7c(ccc(c8cccc2c83)c74)C(=O)N(c2c(C(C)C)cccc2C(C)C)C6=O)cc1)C5=O` [PBI-PMI, 2-(4-(2-(2,6-diisopropylphenyl)-1,3-dioxo-2,3-dihydro-1H-benzo[5,10]anthra[2,1,9-def]isoquinolin-8-yl)phenyl)-9-(tridecan-7-yl)anthra[2,1,9-def:6,5,10-d′e′f′]diisoquinoline-1,3,8,10(2H,9H)-tetraone], in “Light fastness”, the light fastness result is listed as “comparable to the lightfastness of the single perylene bisimide”. The compound further came in with a solubility in series [1] above 0.2 wt %. For the same compound, the quantum yield in series [2] (apolar solvents (cyclohexane)) came to 0.77. Also, in series [3], the dichroic ratio was 14.
